Measured values taken from paper PMC7395068, “The evolution of strategies to minimise the risk of human drug-induced liver injury (DILI) in drug discovery and development” (Archives of Toxicology, 2020).
Like-named read-outs stand apart in the source and are kept apart here.

Key:
[1] = system: THLE or HepG2 cells, isolated mitochondria, BSEP; details: cited from earlier work
[2] = Phase 3 clinical trials; ref Aleo et al. 2019; cited from earlier work
[3] = cited from earlier work
HepG2 cells [4] = details: In vitro Assay; ref O'Brien 2006; cited from earlier work
HepG2 cells [5] = details: In vitro Assay; ref Tolosa 2012; cited from earlier work
[6] = cited from earlier work; remark: listed apart in the source
PHH [7] = details: cited from earlier work
HepG2 [8] = details: cited from earlier work
HepG2 [9] = details: cited from earlier work; remark: listed apart in the source
human hepatocytes = details: cited from earlier work
HepG2 [10] = system: HepG2; parameters: method as in Albrecht 2019; details: In vitro Assay; ref Albrecht 2019; cited from earlier work
PHH spheroids = details: cited from earlier work
HepaRG cells = details: cited from earlier work
[11] = system: isolated mouse liver mitochondria; details: In vitro Assay; ref Porceddu 2012; cited from earlier work
rBsep = details: In vitro Assay; ref Dawson 2012; cited from earlier work
[12] = Plasma free fraction (fu) and unbound Cmax (Cmax,u); assay type: in vitro ADME, human; details: unbound plasma Cmax
[13] = system: primary human hepatocytes, NIH3T3 fibroblasts, BSEP, CYP3A4; details: cited from earlier work
PHH [14] = details: cited from earlier work; remark: listed apart in the source
hLiMTs [15] = details: cited from earlier work
[16] = read-out: Human plasma Cmax; total plasma Cmax.tot, median of 9 literature references; cited from earlier work
[17] = plasma free fraction; cited from earlier work
hLiMTs [18] = assay: Combined HCI (HCS) and cellular ATP 3D assay in hLiMTs; details: for AC50 / minimal effective concentration: Homo sapiens
HepaRG spheroids = assay: Combined HCI (HCS) and cellular ATP 3D assay in HepaRG spheroids; details: for AC50 / minimal effective concentration: Homo sapiens
[19] = In vitro Assay, ref Albrecht 2019
[20] = In vitro Assay, ref Schadt 2015
[21] = Microtissue model structural based (HCI), combined HCS and ATP, MEC < 25 × Cmax.tot cut-off

Cc1cc(OCCCS(C)(=O)=O)cc(C)c1-c1cccc(COc2ccc3c(c2)OC[C@H]3CC(=O)O)c1 [TAK-875, reference compound]
Partition HRM hybrid scoring model classification ([1]; ref Aleo et al. 2019): DILI concern | clinical liver finding [2]: liver injury

CC(=O)N[C@@H](CS)C(=O)O [acetylcysteine]
DILI +VE (5-8), DILI -VE (-4) ([3]; ref Chen 2016): -VE | DILI severity category ([3]; ref Chen 2016): vNo-DILI-Concern | Structural based (HCI) (HepG2 cells [4]): +VE (lowest HCI endpoint IC50 (or in the absence of dose–response < 100 µM) < 30 × total human plasma exposure levels (Cmax.tot)) | Structural based (HCI) (HepG2 cells [5]): -VE | In vivo DILI ([6]; ref Albrecht 2019): -VE | In vivo DILI ([6]; ref O'Brien 2006): -VE | In vivo DILI ([6]; ref Tolosa 2012): -VE | Cytotoxicity PHH 48 hrs (PHH [7]; [19]): -VE | Cytotoxicity HepG2 48 hrs (HepG2 [8]; [19]): -VE

O=C1O[C@H]([C@@H](O)CO)C(O)=C1O [ascorbic acid]
Cytotoxicity PHH 48 hrs (PHH [7]; [19]): -VE | Cytotoxicity HepG2 48 hrs (HepG2 [8]; [19]): -VE

C[S+](C)[O-] [dimethylsulfoxide]
In vivo DILI ([6]; in vivo): -VE | Cytotoxicity PHH 48 hrs (PHH [7]): -VE | Cytotoxicity HepG2 48 hrs (HepG2 [8]): -VE

CCO [ethanol]
Cytotoxicity PHH 48 hrs (PHH [7]): +VE | Cytotoxicity HepG2 48 hrs (HepG2 [8]): +VE

OC[C@H]1OC(O)[C@H](O)[C@@H](O)[C@@H]1O (some centres unmarked) [glucose, reference compound]
Cytotoxicity PHH 48 hrs (PHH [7]; [19]): +VE | Cytotoxicity HepG2 48 hrs (HepG2 [9]; [19]): +VE

COc1ccc2[nH]cc(CCNC(C)=O)c2c1 [melatonin]
Structural based (HCI) (human hepatocytes; In vitro Assay, ref Xu 2008): -VE | Cytotoxicity PHH 48 hrs (PHH [7]; [19]): -VE | Cytotoxicity HepG2 48 hrs (HepG2 [8]; [19]): -VE

COC(=O)c1ccc(O)cc1 [methylparaben]
In vivo DILI ([6]; in vivo): -VE | Cytotoxicity PHH 48 hrs (PHH [7]): -VE | Cytotoxicity HepG2 48 hrs (HepG2 [9]): -VE

CO[C@H]1/C=C/O[C@@]2(C)Oc3c(C)c(O)c4c(O)c(c(/C=N/N5CCN(C)CC5)c(O)c4c3C2=O)NC(=O)/C(C)=C\C=C\[C@H](C)[C@H](O)[C@@H](C)[C@@H](O)[C@@H](C)[C@H](OC(C)=O)[C@@H]1C [rifampicin, reference compound]
Cytotoxicity HepG2 48 hrs (HepG2 [10]): +VE | Structural based (HCI) (HepG2 cells [4]): +VE | Structural based (HCI) (HepG2 cells [5]): +VE | DILI in vitro assay prediction, Vorrink (2018) (PHH spheroids; PHH spheroids, ATP, 14 days, IC20 < 20 × Cmax.tot, ref Vorrink et al. 2018): identified | In vivo DILI ([6]; ref Albrecht 2019): +VE | In vivo DILI ([6]; ref Dawson 2012): +VE | In vivo DILI ([6]; ref Gustafsson 2014): +VE | In vivo DILI ([6]; ref O'Brien 2006): +VE | In vivo DILI ([6]; ref Porceddu 2012): +VE | In vivo DILI ([6]; ref Schadt 2015): +VE | In vivo DILI ([6]; ref Tolosa 2012): +VE | Cytotoxicity PHH 48 hrs (PHH [7]; [19]): +VE | DILI identification by high-throughput transcriptomics (HepaRG cells; HepaRG cells, BMCs in relation to 10 × human Cmax.tot, ref National Toxicology Program): identified | in vitro data EC2<=1x Cmax [11]: +VE | in vitro data EC20<=2uM [11]: -VE | Inhibition of rBsep cutoff<1& cmax u>.2 (rBsep): +VE | Inhibition of rBsep cutoff<3 (rBsep): +VE

Oc1cc(Cl)ccc1Oc1ccc(Cl)cc1Cl [triclosan]
In vivo DILI ([6]; ref Albrecht 2019): -VE | Cytotoxicity PHH 48 hrs (PHH [7]; [19]): -VE | Cytotoxicity HepG2 48 hrs (HepG2 [9]; [19]): +VE

N[C@@H]1[C@H]2CN(c3nc4c(cc3F)c(=O)c(C(=O)O)cn4-c3ccc(F)cc3F)C[C@@H]12 [trovafloxacin]
Human plasma Cmax,u [12]: 1.205 µM | DILI +VE (5-8), DILI -VE (-4) ([3]; in vivo): +VE | DILI severity category (Chen et al. [2016]) ([3]; in vivo): Most | DILI in vitro assay prediction, Schadt (2015) ([13]; BSEP & Metabolism based, ref Schadt et al. 2015): -VE | Cellular toxicity (3T3 cells) [13, 20]: -VE | Combined Assay [13, 20]: -VE | GSH adduct HML [13, 20]: -VE | Hepatocyte cellular toxicity [13, 20]: -VE | MitoTox 3T3 [13, 20]: -VE | TDI CYP3A4 [13, 20]: -VE | hBSEP inhibition [13, 20]: -VE | Structural based (HCI) (human hepatocytes): +VE | Rule of Two hybrid HRM Score ≥3, Aleo (2019) [1]: +VE (key: +VE: Rule of Two hybrid HRM Score ≥3) | Rule of Two hybrid HRM Score ≥8, Aleo (2019) [1]: -VE | PHH ATP <100uM (PHH [14]): -VE | PHH/100uM, Proctor (2017) (PHH [14]): -VE | hLiMTs ATP <100uM (hLiMTs [15]): -VE | hLiMTs/100uM, Proctor (2017) (hLiMTs [15]): -VE | DILI in vitro assay prediction, Vorrink (2018) (PHH spheroids): identified | Cmax [16]: 5.02 µM | fu [17]: 0.240 | Assigned DILI category ([6]; in vivo): 3 | In vivo DILI ([6]; in vivo): +VE | DILI identification by high-throughput transcriptomics (HepaRG cells): identified | AC50 (hLiMTs [18]; read-out: ATP endpoint AC50): 29.4 µM | minimal effective concentration (hLiMTs [18]; read-out: ATP endpoint MEC): 16.4 µM | AC50 (hLiMTs [18]; read-out: HCS endpoint AC50): 38.9 µM | minimal effective concentration (hLiMTs [18]; read-out: HCS endpoint MEC): 20.1 µM | DILI prediction hLiMTs (HCS-MEC) (hLiMTs [18]; [21]): +VE (MEC < 25 × Cmax.tot cut-off) | hLiMTs <25x Avg Cmax ATP (hLiMTs [18]; hLiMTs, ATP endpoint, cut-off <25x Avg Cmax): +ve | hLiMTs <100x Avg Cmaxu ATP (hLiMTs [18]; hLiMTs, ATP endpoint, cut-off <100x Avg Cmaxu): +ve (<100x Avg Cmaxu) | hLiMTs <25x Avg Cmax HCS (hLiMTs [18]; hLiMTs, HCS endpoints, cut-off <25x Avg Cmax): +ve | hLiMTs <100x Avg Cmaxu HCS (hLiMTs [18]; hLiMTs, HCS endpoints, cut-off <100x Avg Cmaxu): +ve (<100x Avg Cmaxu) | hLiMTs <25x Avg Cmax All (hLiMTs [18]; hLiMTs, all endpoints (ATP and HCS), cut-off <25x Avg Cmax): +ve | hLiMTs Cmax max All (hLiMTs [18]; hLiMTs, all endpoints, Cmax max used): +ve | hLiMTs Cmax min All (hLiMTs [18]; hLiMTs, all endpoints, Cmax min used): +ve | hLiMTs <10 uM All (hLiMTs [18]; hLiMTs, all endpoints, cut-off <10 uM): -ve | hLiMTs <100x Avg Cmaxu All (hLiMTs [18]; hLiMTs, all endpoints, cut-off <100x Avg Cmaxu): +ve (<100x Avg Cmaxu) | HepaRG <25x Avg Cmax ATP (HepaRG spheroids; HepaRG, ATP endpoint, cut-off <25x Avg Cmax): +ve | HepaRG <100x Avg Cmaxu ATP (HepaRG spheroids; HepaRG, ATP endpoint, cut-off <100x Avg Cmaxu): +ve (<100x Avg Cmaxu) | HepaRG <25x Avg Cmax HCS (HepaRG spheroids; HepaRG, HCS endpoints, cut-off <25x Avg Cmax): +ve | HepaRG <100x Avg Cmaxu HCS (HepaRG spheroids; HepaRG, HCS endpoints, cut-off <100x Avg Cmaxu): +ve (<100x Avg Cmaxu) | HepaRG <25x Avg Cmax All (HepaRG spheroids; HepaRG, all endpoints (ATP and HCS), cut-off <25x Avg Cmax): +ve | HepaRG Cmax max All (HepaRG spheroids; HepaRG, all endpoints, Cmax max used): +ve | HepaRG Cmax min All (HepaRG spheroids; HepaRG, all endpoints, Cmax min used): +ve | HepaRG <10 uM All (HepaRG spheroids; HepaRG, all endpoints, cut-off <10 uM): +ve (<10 uM) | HepaRG <100x Avg Cmaxu All (HepaRG spheroids; HepaRG, all endpoints, cut-off <100x Avg Cmaxu): +ve (<100x Avg Cmaxu) | AC50 (HepaRG spheroids; HepaRG, read-out: ATP endpoint AC50): 12.9 µM | minimal effective concentration (HepaRG spheroids; HepaRG, read-out: ATP endpoint MEC): 7.27 µM | AC50 (HepaRG spheroids; HepaRG, read-out: HCS endpoint AC50): 24.9 µM | minimal effective concentration (HepaRG spheroids; HepaRG, read-out: HCS endpoint MEC): 17.5 µM | DILI prediction HepaRG spheroids (HCS-MEC) (HepaRG spheroids; [21]): +VE (MEC < 25 × Cmax.tot cut-off)
